Article PMC6478823, “A suite of phenotypic assays to ensure pipeline diversity when prioritizing drug-like Cryptosporidium growth inhibitors” (Nature Communications, 2019)

System: C. parvum
Assay: not given
Format: cell-based, Cryptosporidium parvum
Conditions: compound at EC90; average of replicates
Method: The first step in infection is host cell invasion, which involves a complex process encompassing oocyst excystation, parasite motility, adhesion, and parasitophorous vacuole formation (Fig. 2a). Our strategy to assay for compounds affecting invasion was simply to expose C. parvum to compounds immediately after triggering excystation and throughout the invasion process, and then enumerate the parasite vacuoles after 3 h, prior to allowing the parasites to replicate (summarized in Fig. 2b).
Fig. 2 Invasion Assay. a Overview of life cycle stage investigated during the invasion assay. Representative TEM images of a C. parvum oocyst and HCT-8 cell shortly after infection (Scale bar = 500 nm). b Schematic of experimental design. […] Each point represents the mean and SD of at least two biological replicates with four technical replicates per experiment.
C. parvum invasion inhibition was measured by modifying the 48 h growth inhibition assay described above. […] In parallel, Iowa strain oocysts were excysted. […] Assay plates were incubated at 37 °C and 5% CO2 for 3 h.

First: COc1ccc(NC(=O)N2CCCCN3C(CN(C)C)C(c4ccc(C#Cc5ccccc5)cc4)C3C2)cc1 (stereo not shown) [BRD7929]
Second: Cc1cccc(-n2ncc3c(O)nc(-n4nc(C)cc4NC(=O)c4cc5ccccc5o4)nc32)c1 [C-1]
The “Invasion Assay: Mean % Inhibition (parasites), Average” value of the first is higher: 0.40% for the first, -10.80% for the second.

Same assay, conditions: compound at EC90; single biological replicate 1

First: COc1ccc(NC(=O)N2CCCCN3C(CN(C)C)C(c4ccc(C#Cc5ccccc5)cc4)C3C2)cc1 (stereo not shown) [BRD7929]
Second: Cc1cccc(-n2ncc3c(O)nc(-n4nc(C)cc4NC(=O)c4cc5ccccc5o4)nc32)c1 [C-1]
The “Invasion Assay: Mean % Inhibition (parasites), Replicate 1a” value of the first is higher: -20% for the first, -29% for the second.

Same assay, conditions: compound at EC90; single biological replicate 2

Going from `COc1ccc(NC(=O)N2CCCCN3C(CN(C)C)C(c4ccc(C#Cc5ccccc5)cc4)C3C2)cc1` (stereo not shown) [BRD7929] to `Cc1cccc(-n2ncc3c(O)nc(-n4nc(C)cc4NC(=O)c4cc5ccccc5o4)nc32)c1` [C-1], the “Invasion Assay: Mean % Inhibition (parasites), Replicate 2a” value falls from 20% to -22%.

Same assay, conditions: compound at EC90; single biological replicate 3

Compared with `COc1ccc(NC(=O)N2CCCCN3C(CN(C)C)C(c4ccc(C#Cc5ccccc5)cc4)C3C2)cc1` (stereo not shown) [BRD7929], `Cc1cccc(-n2ncc3c(O)nc(-n4nc(C)cc4NC(=O)c4cc5ccccc5o4)nc32)c1` [C-1] is higher in “Invasion Assay: Mean % Inhibition (parasites), Replicate 3a” value: 1.85% for the first, 9% for the second.

Same assay, conditions: compound at EC90; single biological replicate 4

In the case of `Cc1cccc(-n2ncc3c(O)nc(-n4nc(C)cc4NC(=O)c4cc5ccccc5o4)nc32)c1` [C-1], the “Invasion Assay: Mean % Inhibition (parasites), Replicate 4a” value is reported as -0.416%.

System: C. parvum
Assay: DNA replication assay (EdU incorporation)
Format: cell-based, Cryptosporidium parvum
Conditions: compound at EC90; average of replicates

Compared with `COc1ccc(NC(=O)N2CCCCN3C(CN(C)C)C(c4ccc(C#Cc5ccccc5)cc4)C3C2)cc1` (stereo not shown) [BRD7929], `Cc1cccc(-n2ncc3c(O)nc(-n4nc(C)cc4NC(=O)c4cc5ccccc5o4)nc32)c1` [C-1] is lower in “DNA Synthesis Assay: Mean % Inhibition of EdU-labeling (normalized to parasite numbers), Average” value: 93.39% for the first, 91.44% for the second.

Same assay, conditions: compound at EC90; single replicate 1

First: COc1ccc(NC(=O)N2CCCCN3C(CN(C)C)C(c4ccc(C#Cc5ccccc5)cc4)C3C2)cc1 (stereo not shown) [BRD7929]
Second: Cc1cccc(-n2ncc3c(O)nc(-n4nc(C)cc4NC(=O)c4cc5ccccc5o4)nc32)c1 [C-1]
The “DNA Synthesis Assay: Mean % Inhibition of EdU-labeling (normalized to parasite numbers), Replicate 1” value of the first is lower: 85.08% for the first, 100% for the second.

Same assay, conditions: compound at EC90; single replicate 2

First: COc1ccc(NC(=O)N2CCCCN3C(CN(C)C)C(c4ccc(C#Cc5ccccc5)cc4)C3C2)cc1 (stereo not shown) [BRD7929]
Second: Cc1cccc(-n2ncc3c(O)nc(-n4nc(C)cc4NC(=O)c4cc5ccccc5o4)nc32)c1 [C-1]
The “DNA Synthesis Assay: Mean % Inhibition of EdU-labeling (normalized to parasite numbers), Replicate 2” value of the first is lower: 95.72% for the first, 100% for the second.

Same assay, conditions: compound at EC90; single replicate 3

First: COc1ccc(NC(=O)N2CCCCN3C(CN(C)C)C(c4ccc(C#Cc5ccccc5)cc4)C3C2)cc1 (stereo not shown) [BRD7929]
Second: Cc1cccc(-n2ncc3c(O)nc(-n4nc(C)cc4NC(=O)c4cc5ccccc5o4)nc32)c1 [C-1]
The “DNA Synthesis Assay: Mean % Inhibition of EdU-labeling (normalized to parasite numbers), Replicate 3” value of the first is higher: 99.38% for the first, 74.32% for the second.

System: C. parvum DMC1 expression
Assay: Sexual differentiation assay (DMC1 expression)
Format: cell-based, Cryptosporidium parvum
Conditions: compound at asexual EC90, 48-72 h; average of replicates
Source text: We utilized DMC1 as a marker of C. parvum sexual development, and used the anti-DMC1 monoclonal antibody to develop a moderate-throughput high-content microscopy assay for characterizing anticryptosporidial compounds (Fig. 6a). […] Therefore, in order to enable numerical comparison of the ability of compounds to block sexual development with moderate throughput, we adopted a strategy of reporting the percent inhibition of DMC1 expression by the previously determined EC90 of each compound in the standard asexual development assay (Fig. 6c and Supplementary Table 2).
Fig. 6 Assay to measure asexual-to-sexual-stage conversion. a Schematic of the experimental approach. […] For b and c the mean and SD combined from at least two biological replicates with four technical replicates per experiment are shown. […] At given time points post-infection, infected cells were washed 3 times with PBS containing 111 mM of D-galactose, fixed for 15 min at room temperature with 4% paraformaldehyde in PBS, and permeabilized with 0.25% triton X-100 in PBS for 10 min at 37 °C. Cells were then washed 3 times with PBS and blocked at least overnight at 4 °C with 1% BSA in PBS (blocking buffer). Cells were stained with monoclonal antibody (1H10G7), either neat culture supernatant or 12.8 µg/mL of purified IgG in blocking buffer for 1 h at 37 °C, followed by 2 washes with PBS. Cells were then co-stained with a 1:500 dilution (4 µg/mL) of Alexa Fluor 568 goat anti-mouse IgG (Invitrogen, catalog# A-11004) and 1.33 µg/mL fluorescein-labeled Vicia villosa lectin (Vector Laboratories, catalog# FL-1231) diluted in blocking buffer for 1 h at 37 °C. Stains were then removed and 0.09 mM Hoechst 33258 (AnaSpec, catalog# AS-83219) also diluted in blocking buffer was added for another 15 min at 37 °C, followed by 2 PBS washes and imaging on a Nikon Eclipse Ti2000 epifluorescence microscope run with NIS-Elements Advanced Research software (Nikon, USA) and equipped with an EXi blue fluorescent microscopy camera (QImaging, Canada). For enumerating parasites, tiled 2 × 2 images with 15% overlapping edges were taken using a 40 × dry objective (0.7 NA), and for finer details, Z stack images were acquired using a 60 × oil objective (1.4 NA). Lectin positive cells in focus were first counted, followed by DMC1.
For compound dose-response studies, the same assay was performed in 384-well plates and imaged using a 20 × dry objective (NA = 0.45). Tiled 4 × 4 to 6 × 6 images were taken. Images were analyzed using ImageJ software and the custom macro provided in Supplementary Method 2.

Going from `COc1ccc(NC(=O)N2CCCCN3C(CN(C)C)C(c4ccc(C#Cc5ccccc5)cc4)C3C2)cc1` (stereo not shown) [BRD7929] to `Cc1cccc(-n2ncc3c(O)nc(-n4nc(C)cc4NC(=O)c4cc5ccccc5o4)nc32)c1` [C-1], the “Asexual to sexual differentiation: Mean % DMC1 inhibition (normalized to host nuclei), Average” value falls from 63.11% to 30.35%.

Same assay, conditions: compound at asexual EC90, 48-72 h; single replicate 1

Compared with `COc1ccc(NC(=O)N2CCCCN3C(CN(C)C)C(c4ccc(C#Cc5ccccc5)cc4)C3C2)cc1` (stereo not shown) [BRD7929], `Cc1cccc(-n2ncc3c(O)nc(-n4nc(C)cc4NC(=O)c4cc5ccccc5o4)nc32)c1` [C-1] is lower in “Asexual to sexual differentiation: Mean % DMC1 inhibition (normalized to host nuclei), Replicate 1a” value: 38.81% for the first, 26.21% for the second.

Same assay, conditions: compound at asexual EC90, 48-72 h; single replicate 2

Compared with `COc1ccc(NC(=O)N2CCCCN3C(CN(C)C)C(c4ccc(C#Cc5ccccc5)cc4)C3C2)cc1` (stereo not shown) [BRD7929], `Cc1cccc(-n2ncc3c(O)nc(-n4nc(C)cc4NC(=O)c4cc5ccccc5o4)nc32)c1` [C-1] is lower in “Asexual to sexual differentiation: Mean % DMC1 inhibition (normalized to host nuclei), Replicate 2a” value: 78.93% for the first, 37.12% for the second.

Same assay, conditions: compound at asexual EC90, 48-72 h; single replicate 3

Compared with `COc1ccc(NC(=O)N2CCCCN3C(CN(C)C)C(c4ccc(C#Cc5ccccc5)cc4)C3C2)cc1` (stereo not shown) [BRD7929], `Cc1cccc(-n2ncc3c(O)nc(-n4nc(C)cc4NC(=O)c4cc5ccccc5o4)nc32)c1` [C-1] is lower in “Asexual to sexual differentiation: Mean % DMC1 inhibition (normalized to host nuclei), Replicate 3a” value: 84.43% for the first, 27.73% for the second.

Same assay, conditions: compound at asexual EC90, 48-72 h; single replicate 4

For `COc1ccc(NC(=O)N2CCCCN3C(CN(C)C)C(c4ccc(C#Cc5ccccc5)cc4)C3C2)cc1` (stereo not shown) [BRD7929], the “Asexual to sexual differentiation: Mean % DMC1 inhibition (normalized to host nuclei), Replicate 4a” value was 50.27%.

System: C. parvum
Assay: Egress, motility, reinvasion assay (PV ratio)
Conditions: compound at EC90; average of replicates
Method: For quantification of parasitophorous vacuoles over time, HCT-8 cells were grown to greater than 90% confluence in 384-well plates and infected with 11,000 oocysts after triggering excystation.

First: COc1ccc(NC(=O)N2CCCCN3C(CN(C)C)C(c4ccc(C#Cc5ccccc5)cc4)C3C2)cc1 (stereo not shown) [BRD7929]
Second: Cc1cccc(-n2ncc3c(O)nc(-n4nc(C)cc4NC(=O)c4cc5ccccc5o4)nc32)c1 [C-1]
The “Egress and Reinvasion Assay: Mean PV ratios (19.5h:6h), Average” value of the first is lower: 0.72 for the first, 0.80 for the second.

Same assay, conditions: compound at EC90; single replicate 1

Going from `COc1ccc(NC(=O)N2CCCCN3C(CN(C)C)C(c4ccc(C#Cc5ccccc5)cc4)C3C2)cc1` (stereo not shown) [BRD7929] to `Cc1cccc(-n2ncc3c(O)nc(-n4nc(C)cc4NC(=O)c4cc5ccccc5o4)nc32)c1` [C-1], the “Egress and Reinvasion Assay: Mean PV ratios (19.5h:6h), Replicate 1a” value rises from 0.46 to 0.80.

Same assay, conditions: compound at EC90; single replicate 2

Going from `COc1ccc(NC(=O)N2CCCCN3C(CN(C)C)C(c4ccc(C#Cc5ccccc5)cc4)C3C2)cc1` (stereo not shown) [BRD7929] to `Cc1cccc(-n2ncc3c(O)nc(-n4nc(C)cc4NC(=O)c4cc5ccccc5o4)nc32)c1` [C-1], the “Egress and Reinvasion Assay: Mean PV ratios (19.5h:6h), Replicate 2a” value rises from 0.99 to 1.08.

Same assay, conditions: compound at EC90; single replicate 3

Compared with `COc1ccc(NC(=O)N2CCCCN3C(CN(C)C)C(c4ccc(C#Cc5ccccc5)cc4)C3C2)cc1` (stereo not shown) [BRD7929], `Cc1cccc(-n2ncc3c(O)nc(-n4nc(C)cc4NC(=O)c4cc5ccccc5o4)nc32)c1` [C-1] is lower in “Egress and Reinvasion Assay: Mean PV ratios (19.5h:6h), Replicate 3a” value: 0.98 for the first, 0.56 for the second.

Same assay, conditions: compound at EC90; single replicate 4

First: COc1ccc(NC(=O)N2CCCCN3C(CN(C)C)C(c4ccc(C#Cc5ccccc5)cc4)C3C2)cc1 (stereo not shown) [BRD7929]
Second: Cc1cccc(-n2ncc3c(O)nc(-n4nc(C)cc4NC(=O)c4cc5ccccc5o4)nc32)c1 [C-1]
The “Egress and Reinvasion Assay: Mean PV ratios (19.5h:6h), Replicate 4a” value of the first is lower: 0.41 for the first, 0.76 for the second.

Same assay, conditions: compound at EC90; single replicate 5

In the case of `COc1ccc(NC(=O)N2CCCCN3C(CN(C)C)C(c4ccc(C#Cc5ccccc5)cc4)C3C2)cc1` (stereo not shown) [BRD7929], the “Egress and Reinvasion Assay: Mean PV ratios (19.5h:6h), Replicate 5a” value is reported as 0.78.
